Patent US20230374017A1, “COMPOSITIONS AND METHODS FOR ACTIVATING PYRUVATE KINASE” (The Regents of the University of Michigan, priority 2020, published 2023)

Experiments:
[1] = target: T1, human recombinant PKM2 (Homo sapiens, UniProt P14618); experiment: Pyruvate kinase activity enzyme assay, recombinant enzyme (LDH-coupled, NADH depletion at 340 nm); type: biochemical; settings: normalized to DMSO-treated PKM2 activity; for EC50: recombinant PKM2 20 nM; for Emax: recombinant PKM2, read-out: Max Activation
T1 construct: purchased Sigma SAE0021
T1 sequence (P14618 whole entry): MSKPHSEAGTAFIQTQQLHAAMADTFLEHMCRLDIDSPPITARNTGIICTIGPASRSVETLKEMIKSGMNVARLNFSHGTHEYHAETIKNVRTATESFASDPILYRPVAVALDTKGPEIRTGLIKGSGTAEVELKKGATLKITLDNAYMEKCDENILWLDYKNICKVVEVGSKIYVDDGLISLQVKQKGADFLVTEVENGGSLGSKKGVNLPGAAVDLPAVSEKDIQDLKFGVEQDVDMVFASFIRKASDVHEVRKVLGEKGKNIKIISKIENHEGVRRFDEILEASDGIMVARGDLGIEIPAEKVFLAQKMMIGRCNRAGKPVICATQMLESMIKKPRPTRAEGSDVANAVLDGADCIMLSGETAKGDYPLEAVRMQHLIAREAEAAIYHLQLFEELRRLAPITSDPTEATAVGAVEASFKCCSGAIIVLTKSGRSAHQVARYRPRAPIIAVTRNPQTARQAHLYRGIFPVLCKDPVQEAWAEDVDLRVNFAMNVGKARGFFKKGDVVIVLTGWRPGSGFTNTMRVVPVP
Method: Pyruvate Kinase Activity Enzyme Assay. Recombinant Enzyme. A continuous, enzyme-coupled assay, which uses lactate dehydrogenase (LDH) and measures the depletion of NADH via absorbance at 340 nm was utilized to determine the pyruvate kinase activity. For AC50 measurements (concentration of activator necessary to achieve half-maximal activation) with ML-265, assays were performed in 96-well format using 200 μL/well assay volume with final concentrations of 20 nM human recombinant PKM2 (Sigma, SAE0021), differing concentrations of ML-265, 0.5 mM PEP, 1 mM ADP, 0.2 mM NADH, and 8 U of lactate dehydrogenase (LDH) in an assay buffer of 50 mM Tris-HCl (pH 7.4), 100 mM KCl, and 5 mM MgCl2. The decrease in absorbance at 340 nm was monitored using a SPECTROstar Omega plate reader (BMG LABTECH Inc., Cary, NC, USA). Initial velocities were calculated with the MARS software. Data were normalized to DMSO (dimethyl sulfoxide)-treated PKM2 activity.

[2] = target: T2, pyruvate kinase activity, 661W cell line (Mus musculus, UniProt P52480); experiment: Pyruvate kinase activity in 661W cell lysates after 2 hours treatment; type: cell-based; settings: 661W cells, 2 hours incubation, activity normalized to total protein; for Emax: read-out: Max Activation (cell)
T2 construct: endogenous in cells; host or cells: 661W cell line
T2 sequence (P52480 whole entry): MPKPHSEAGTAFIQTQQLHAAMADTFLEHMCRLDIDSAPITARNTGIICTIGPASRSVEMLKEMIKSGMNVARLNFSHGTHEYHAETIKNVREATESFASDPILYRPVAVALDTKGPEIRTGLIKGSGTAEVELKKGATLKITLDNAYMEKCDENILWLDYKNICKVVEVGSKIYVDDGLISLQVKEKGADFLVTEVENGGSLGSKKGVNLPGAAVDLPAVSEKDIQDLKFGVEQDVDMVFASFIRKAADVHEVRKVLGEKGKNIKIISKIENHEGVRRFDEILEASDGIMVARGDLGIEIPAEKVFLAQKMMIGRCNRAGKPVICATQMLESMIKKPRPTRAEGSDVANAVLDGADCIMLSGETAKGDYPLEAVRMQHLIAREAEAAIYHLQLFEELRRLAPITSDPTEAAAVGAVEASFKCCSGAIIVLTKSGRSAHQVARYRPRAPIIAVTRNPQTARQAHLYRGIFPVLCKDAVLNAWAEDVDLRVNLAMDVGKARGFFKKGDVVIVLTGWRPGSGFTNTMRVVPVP
Method: Cell culture. For 661W cell line experiments, media was replaced prior to the start of treatment with DMSO or ML-265. Cells were incubated with DMSO or different concentrations of ML-265 for 2 hours. Cells were lysed and homogenized in RIPA Lysis and Extraction Buffer (Catalog number: 89900, Life Technologies Corporation, Grand Island, NY) with protease inhibitors (Complete-Mini, Roche Diagnostics, Indianapolis, IN) and cellular debris was removed by centrifugation at 10,000 rpm for 10 minutes. Ten microliters of the supernatant was used to assess pyruvate kinase activity, and the activity was normalized to total protein content as previously described.

[3] = system: photoreceptors / retina; settings: cited from earlier work

Q: With Cn1c2cc(Oc3ccc4[nH]ncc4n3)ccc2c2cnn(Cc3ccccc3F)c(=O)c21 [Example 70, 7-((1H-pyrazolo[4,3-b]pyridin-5-yl)oxy)-3-(2-fluorobenzyl)-5-methyl-3,5-dihydro-4H-pyridazino[4,5-b]indol-4-one] as the molecule, how does the EC50 [1] read?
A: The EC50 was 82 nM.

Q: And the Emax [1]?
A: The Emax was 191%.

Q: And the EC50 [2]?
A: The EC50 was 162 nM.

Q: What about the Emax [2] of the same molecule?
A: Its Emax is 210%.

Q: Which EC50 [1] does the source give for Cn1c2cc(Oc3nccc4[nH]ncc34)ccc2c2cnn(Cc3ccccc3F)c(=O)c21 [Example 71, 7-((1H-pyrazolo[4,3-c]pyridin-4-yl)oxy)-3-(2-fluorobenzyl)-5-methyl-3,5-dihydro-4H-pyridazino[4,5-b]indol-4-one] here?
A: The EC50 was 28 nM.

Q: What about the Emax [1] of the same molecule?
A: The Emax was 165%.

Q: What about the EC50 [2] of the same molecule?
A: Its EC50 is 69 nM.

Q: And the Emax [2]?
A: Its Emax is 278%.

Q: For Cn1c2cc(Oc3cccc(O)n3)ccc2c2cnn(Cc3ccccc3F)c(=O)c21 [Example 72, 3-(2-fluorobenzyl)-7-((6-hydroxypyridin-2-yl)oxy)-5-methyl-3,5-dihydro-4H-pyridazino [4,5-b]indol-4-one], which EC50 [1] is on record?
A: Its EC50 is 55 nM.

Q: What about the Emax [1] of the same molecule?
A: Its Emax is 206%.

Q: And the EC50 [2]?
A: The EC50 was 72 nM.

Q: What about the Emax [2] of the same molecule?
A: The Emax was 222%.

Q: With Cn1c2cc(Oc3ncnc4[nH]ncc34)ccc2c2cnn(Cc3ccccc3F)c(=O)c21 [Example 73, 7-((1H-pyrazolo[3,4-d]pyrimidin-4-yl)oxy)-3-(2-fluorobenzyl)-5-methyl-3,5-dihydro-4H-pyridazino[4,5-b]indol-4-one] as the molecule, how does the EC50 [1] read?
A: The EC50 was 22 nM.

Q: And the Emax [1]?
A: Its Emax is 232%.

Q: What about the EC50 [2] of the same molecule?
A: Its EC50 is 104 nM.

Q: And the Emax [2]?
A: The Emax was 189%.

Q: With Cn1c2cc(Oc3cccc(F)n3)ccc2c2cnn(Cc3ccccc3F)c(=O)c21 [Example 74, 3-(2-fluorobenzyl)-7-((6-fluoropyridin-2-yl)oxy)-5-methyl-3,5-dihydro-4H-pyridazino[4,5-b]indol-4-one] as the molecule, how does the EC50 [1] read?
A: Its EC50 is 62 nM.

Q: And the Emax [1]?
A: Its Emax is 234%.

Q: What about the EC50 [2] of the same molecule?
A: Its EC50 is 81 nM.

Q: And the Emax [2]?
A: Its Emax is 370%.

Q: For Cn1c2cc(Oc3cccc(Cl)n3)ccc2c2cnn(Cc3cccc(N)c3)c(=O)c21 [Example 78, 3-(3-aminobenzyl)-7-((6-chloropyridin-2-yl)oxy)-5-methyl-3,5-dihydro-4H-pyridazino[4,5-b]indol-4-one], which EC50 [1] is on record?
A: The EC50 was 35 nM.

Q: What about the Emax [1] of the same molecule?
A: Its Emax is 195%.

Q: And the EC50 [2]?
A: The EC50 was 47 nM.

Q: And the Emax [2]?
A: The Emax was 247%.

Q: What does the source list for Cn1c2cc(Oc3cccc(N)c3)ccc2c2cnn(Cc3cccc(N)c3)c(=O)c21 [Example 80, 3-(3-aminobenzyl)-7-(3-aminophenoxy)-5-methyl-3,5-dihydro-4H-pyridazino[4,5-b]indol-4-one]?
A: EC50 [1]: 45 nM; Emax [1]: 286%; EC50 [2]: 235 nM; Emax [2]: 325%

Q: What does the source list for Cn1ncc2c3ccc(Oc4cccc(Cl)n4)cc3n(C)c2c1=O [Example 81, 7-((6-chloropyridin-2-yl)oxy)-3,5-dimethyl-3,5-dihydro-4H-pyridazino[4,5-b]indol-4-one]?
A: EC50 [1]: 49 nM; Emax [1]: 336%; EC50 [2]: 259 nM; Emax [2]: 259%

Q: With Cn1c2cc(Oc3cccc(F)n3)ccc2c2cnn(Cc3cccc4[nH]ncc34)c(=O)c21 [Example 85, 3-((1H-indazol-4-yl)methyl)-7-((6-fluoropyridin-2-yl)oxy)-5-methyl-3,5-dihydro-4H-pyridazino[4,5-b]indol-4-one] as the molecule, how does the EC50 [1] read?
A: Its EC50 is 63 nM.

Q: And the Emax [1]?
A: The Emax was 330%.

Q: What about the EC50 [2] of the same molecule?
A: Its EC50 is 76 nM.

Q: And the Emax [2]?
A: Its Emax is 315%.

Q: What does the source list for Cn1c2cc(Oc3cccc(F)n3)ccc2c2cnn(Cc3cc[nH]n3)c(=O)c21 [Example 86, 3-((1H-pyrazol-3-yl)methyl)-7-((6-fluoropyridin-2-yl)oxy)-5-methyl-3,5-dihydro-4H-pyridazino[4,5-b]indol-4-one]?
A: EC50 [1]: 63 nM; Emax [1]: 195%; EC50 [2]: 172 nM; Emax [2]: 352%

Q: For COc1cccc(Cn2ncc3c4ccc(Oc5cccc(F)n5)cc4n(C)c3c2=O)c1 [Example 90, 7-((6-fluoropyridin-2-yl)oxy)-3-(3-methoxybenzyl)-5-methyl-3,5-dihydro-4H-pyridazino[4,5-b]indol-4-one], which EC50 [1] is on record?
A: The EC50 was 72 nM.

Q: What about the Emax [1] of the same molecule?
A: The Emax was 218%.

Q: What about the EC50 [2] of the same molecule?
A: The EC50 was 60 nM.

Q: And the Emax [2]?
A: The Emax was 202%.

Q: For Cn1c2cc([S+](C)[O-])sc2c2cnn(Cc3cccc(N)c3)c(=O)c21 (stereo not shown) [ML-265], which “toxic effects on the retina” value ([3]; long-term) is on record?
A: The value was “without any toxic effects on the retina long-term”.

Q: What about the photoreceptor apoptosis ([3]; small molecule activation of PKM2, models of outer retinal stress) of the same molecule?
A: Its photoreceptor apoptosis is “circumvents photoreceptor apoptosis”.
